Data from PubChem BioAssay AID2060621 (Molecular Pharmacology Branch, DTP, NCI, 2025).
Several values for one entry are separate records, joined by “and”; a condition that tells them apart may be missing. Equal entries are not always repeated.

Test system: 324938-238-R-J1-PDC complex spheroids viability
Test: Anticancer human tumor 324938-238-R-J1-PDC patient-derived bladder carcinoma cell line growth inhibition [CLK]
Settings: for viability, T/C: stronger effect = lower value
Procedure, shortened: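 Patient-derived tumor cells grown as complex spheroids with HUVEC endothelial cells and mesenchymal stem cells, treated with drug combinations. Concentrations descend in half-log steps from near clinical Cmax, or from 10 microM if Cmax unknown.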

[1] = curve of first compound, second compound 0.0316 µM
[2] = curve of first compound, second compound 0.1 µM
[3] = curve of first compound, second compound 0.316 µM
[4] = curve of first compound, second compound 1 µM
[5] = curve of first compound, second compound 3.16 µM
[6] = curve of first compound, second compound 10 µM
[7] = second compound 0.0316 µM, first compound 0.0316 µM
[8] = second compound 0.0316 µM, first compound 0.1 µM
[9] = second compound 0.0316 µM, first compound 0.316 µM
[10] = second compound 0.0316 µM, first compound 1 µM
[11] = second compound 0.0316 µM, first compound 3.16 µM
[12] = second compound 0.0316 µM, first compound 10 µM
[13] = second compound 0.1 µM, first compound 0.0316 µM
[14] = second compound 0.1 µM, first compound 0.1 µM
[15] = second compound 0.1 µM, first compound 0.316 µM
[16] = second compound 0.1 µM, first compound 1 µM
[17] = second compound 0.1 µM, first compound 3.16 µM
[18] = second compound 0.1 µM, first compound 10 µM
[19] = second compound 0.316 µM, first compound 0.0316 µM
[20] = second compound 0.316 µM, first compound 0.1 µM
[21] = second compound 0.316 µM, first compound 0.316 µM
[22] = second compound 0.316 µM, first compound 1 µM
[23] = second compound 0.316 µM, first compound 3.16 µM
[24] = second compound 0.316 µM, first compound 10 µM
[25] = second compound 1 µM, first compound 0.0316 µM
[26] = second compound 1 µM, first compound 0.1 µM
[27] = second compound 1 µM, first compound 0.316 µM
[28] = second compound 1 µM, first compound 1 µM
[29] = second compound 1 µM, first compound 3.16 µM
[30] = second compound 1 µM, first compound 10 µM
[31] = second compound 3.16 µM, first compound 0.0316 µM
[32] = second compound 3.16 µM, first compound 0.1 µM
[33] = second compound 3.16 µM, first compound 0.316 µM
[34] = second compound 3.16 µM, first compound 1 µM
[35] = second compound 3.16 µM, first compound 3.16 µM
[36] = second compound 3.16 µM, first compound 10 µM
[37] = second compound 10 µM, first compound 0.0316 µM
[38] = second compound 10 µM, first compound 0.1 µM
[39] = second compound 10 µM, first compound 0.316 µM
[40] = second compound 10 µM, first compound 1 µM
[41] = second compound 10 µM, first compound 3.16 µM
[42] = second compound 10 µM, first compound 10 µM
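Also: viability read after seven days of drug exposure.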
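For viability, T/C in this document: 100% = DMSO vehicle control wells.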

Work on `C=CC(=O)N1CCN(c2nc(=O)n(-c3c(C)ccnc3C(C)C)c3nc(-c4c(O)cccc4F)c(F)cc23)C(C)C1` (stereo not drawn) + CNC(=O)c1ccc(Nc2nc(OC3CCCC3)c3c(-c4ccc5nc(C)oc5c4)c[nH]c3n2)c(OC)c1 yielded an IC50 [1] of over 10000 nM, an IC50 [2] of under 31.6 nM and an IC50 [3] of under 31.6 nM. For the same molecule, the IC50 [4] was under 31.6 nM, the IC50 [5] was under 31.6 nM and the IC50 [6] was under 31.6 nM. The viability, T/C [7] was 92.7%, the viability, T/C [8] was 95.3% and the viability, T/C [9] was 96.2%. The viability, T/C [10] was 102%, the viability, T/C [11] was 88.8% and the viability, T/C [12] was 81.4%. For the same molecule, the viability, T/C [13] was 32.6%, the viability, T/C [14] was 30.8% and the viability, T/C [15] was 27.9%. For the same molecule, the viability, T/C [16] was 35.1%, the viability, T/C [17] was 33.5% and the viability, T/C [18] was 31.6%. For the same molecule, the viability, T/C [19] was 20.4%, the viability, T/C [20] was 17.4% and the viability, T/C [21] was 20.7%. It also gave a viability, T/C [22] of 20.4%, a viability, T/C [23] of 23.9% and a viability, T/C [24] of 27.4%. The viability, T/C [25] was 15.3%, the viability, T/C [26] was 16.1% and the viability, T/C [27] was 16.5%. It also gave a viability, T/C [28] of 19.3%, a viability, T/C [29] of 20.5% and a viability, T/C [30] of 21.5%. It also gave a viability, T/C [31] of 18.3%, a viability, T/C [32] of 18.4% and a viability, T/C [33] of 20.4%. For the same molecule, the viability, T/C [34] was 18.8%, the viability, T/C [35] was 23.7% and the viability, T/C [36] was 25.5%. For the same molecule, the viability, T/C [37] was 19.4%, the viability, T/C [38] was 15.6% and the viability, T/C [39] was 18.5%. It also gave a viability, T/C [40] of 21%, a viability, T/C [41] of 25.5% and a viability, T/C [42] of 25.7%.

`CC(=O)O[C@H]1C(=O)[C@@]2(C)[C@H]([C@H](OC(=O)c3ccccc3)[C@]3(O)C[C@H](OC(=O)[C@H](O)[C@@H](NC(=O)c4ccccc4)c4ccccc4)C(C)=C1C3(C)C)[C@]1(OC(C)=O)CO[C@@H]1C[C@@H]2O` was tested, and the viability, T/C (compound 0.0316 µM) was 12.8% and 11.6%, the viability, T/C (compound 0.1 µM) was 12% and the viability, T/C (compound 0.316 µM) was 11.3% and 13.4%. For the same molecule, the viability, T/C (compound 1 µM) was 12.2% and 10.1%, the viability, T/C (compound 3.16 µM) was 13.7% and 12.3% and the viability, T/C (compound 10 µM) was 15.3% and 14.2%. For the same molecule, the IC50 (curve of compound) was under 31.6 nM.

`COc1ccc([C@@H](O)c2cc(-c3ncnc4cc(N5CCOCC5)ccc34)c(F)cc2Cl)nn1` was tested, and the viability, T/C (compound 0.0316 µM) was 78% and 79.6%, the viability, T/C (compound 0.1 µM) was 81% and 88.1% and the viability, T/C (compound 0.316 µM) was 68.9% and 55.6%. For the same molecule, the viability, T/C (compound 1 µM) was 59.9% and 71%, the viability, T/C (compound 3.16 µM) was 52.4% and 50.7% and the viability, T/C (compound 10 µM) was 37.4% and 36.7%. The IC50 (curve of compound) was 3300 nM and 3510 nM.

Work on `CCCS(=O)(=O)Nc1ccc(F)c(C(=O)c2c[nH]c3ncc(-c4ccc(Cl)cc4)cc23)c1F` + CN1CCN(c2cc(C(=O)Nc3cc4cc(-c5cnn(C)c5)ccc4cn3)ccn2)CC1 yielded an IC50 [1] of over 10000 nM, an IC50 [2] of 8330 nM and an IC50 [3] of under 31.6 nM. It also gave an IC50 [4] of under 31.6 nM, an IC50 [5] of under 31.6 nM and an IC50 [6] of under 31.6 nM. The viability, T/C [7] was 76.9%, the viability, T/C [8] was 96% and the viability, T/C [9] was 92.7%. For the same molecule, the viability, T/C [10] was 114%, the viability, T/C [11] was 102% and the viability, T/C [12] was 58.3%. For the same molecule, the viability, T/C [13] was 61.2%, the viability, T/C [14] was 61.3% and the viability, T/C [15] was 52%. For the same molecule, the viability, T/C [16] was 65.7%, the viability, T/C [17] was 60.1% and the viability, T/C [18] was 39.1%. For the same molecule, the viability, T/C [19] was 24.1%, the viability, T/C [20] was 27.6% and the viability, T/C [21] was 24.5%. The viability, T/C [22] was 27.2%, the viability, T/C [23] was 26% and the viability, T/C [24] was 24.8%. The viability, T/C [25] was 1.58%, the viability, T/C [26] was 1.65% and the viability, T/C [27] was 1.22%. It also gave a viability, T/C [28] of 0.96%, a viability, T/C [29] of 1.9% and a viability, T/C [30] of 0.6%. It also gave a viability, T/C [31] of 0.52%, a viability, T/C [32] of 0.23% and a viability, T/C [33] of 0.3%. The viability, T/C [34] was 0.13%, the viability, T/C [35] was 0.14% and the viability, T/C [36] was 0.21%. The viability, T/C [37] was 0.56%, the viability, T/C [38] was 0.19% and the viability, T/C [39] was 0.19%. It also gave a viability, T/C [40] of 0.31%, a viability, T/C [41] of 0.18% and a viability, T/C [42] of 0.62%.
